Data as given in patent US10125129B2 (priority 2016, dated 2018).
Entries after “also recorded” stand apart in the source; their conditions may differ. Read-outs that look alike come from different tables or passages of the source.

Assays:
μ opioid receptor (MOR) = target: T1, μ opioid receptor (MOR) (Homo sapiens, UniProt P35372); assay: cell-based; format: cell-based
T1 construct: expressed in transfected cells

κ opioid receptor (KOR) = target: T2, κ opioid receptor (KOR) (Homo sapiens, UniProt P41145); assay: cell-based; format: cell-based
T2 construct: expressed in transfected cells

mice [1] = assay: Hot water tail-flick cumulative dose-response (s.c.); format: in vivo; conditions: Mus musculus, sc, 0.5 h, cumulative s.c. doses 1-30 mg/kg, latency 30 min after each dose
mice [2] = assay: Accelerating rotarod performance assay; conditions: 10 mg/kg i.p.; compared to kurkinorin and vehicle
Sprague Dawley rats = assay: Conditioned place preference assay; conditions: i.p.
mice [3] = assay: Hot water tail-flick tolerance evaluation, daily dosing; format: in vivo; conditions: for antinociceptive effects over days of daily administration (tolerance): 7 mg/kg i.p. daily, days 1, 3, 5, 6, mice; for antinociceptive effects on day 6 challenge after daily vehicle: daily vehicle treated mice challenged on day 6
mice [4] = assay: Centrally mediated antinociceptive effects (tail-flick), i.p. doses, 10 s cutoff; format: in vivo

T2 sequence (P41145 whole entry): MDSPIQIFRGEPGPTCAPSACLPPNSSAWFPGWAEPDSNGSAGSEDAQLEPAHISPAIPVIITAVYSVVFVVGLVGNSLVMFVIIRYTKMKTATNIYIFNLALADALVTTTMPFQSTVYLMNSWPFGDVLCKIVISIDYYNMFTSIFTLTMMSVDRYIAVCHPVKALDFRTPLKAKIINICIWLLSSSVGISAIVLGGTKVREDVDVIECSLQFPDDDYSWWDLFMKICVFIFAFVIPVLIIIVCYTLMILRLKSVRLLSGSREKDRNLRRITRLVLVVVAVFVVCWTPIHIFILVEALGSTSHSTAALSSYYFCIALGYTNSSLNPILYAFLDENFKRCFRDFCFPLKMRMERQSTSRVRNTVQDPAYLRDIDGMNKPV
T1 sequence (P35372 whole entry): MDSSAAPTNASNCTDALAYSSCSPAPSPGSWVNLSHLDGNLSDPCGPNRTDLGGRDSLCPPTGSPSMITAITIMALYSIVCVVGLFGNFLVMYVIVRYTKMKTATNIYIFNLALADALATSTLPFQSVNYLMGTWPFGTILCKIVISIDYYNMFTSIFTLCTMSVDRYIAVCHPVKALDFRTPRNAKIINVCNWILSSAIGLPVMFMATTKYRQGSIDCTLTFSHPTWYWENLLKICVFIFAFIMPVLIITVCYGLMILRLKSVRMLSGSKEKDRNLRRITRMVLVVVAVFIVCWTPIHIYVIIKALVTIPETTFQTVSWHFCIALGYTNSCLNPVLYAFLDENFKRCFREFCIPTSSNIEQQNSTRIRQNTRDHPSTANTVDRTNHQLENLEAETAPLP

## COC(=O)[C@@H]1C=C(OC(=O)c2cccc(O)c2)C(=O)[C@H]2[C@@]1(C)CC[C@H]1C(=O)O[C@H](c3ccoc3)C[C@]21C [Table 3 Entry 2, (2S,4aR,6aR,7R,10aR,10bR)-Methyl 2-(furan-3-yl)-9-((3-hydroxybenzoyl)oxy)-6a,10b-dimethyl-4,10-dioxo-2,4,4a,5,6,6a,7,10,10a,10bdecahydro-1H-benzo[f]isochromene-7-carboxylate]
μ opioid receptor (MOR); EC50
  EC50: 1.3 ± 0.3 nM
other
  melting point: 124 to 126 °C

## COC(=O)[C@@H]1C=C(OC(=O)c2ccc(O)cc2)C(=O)[C@H]2[C@@]1(C)CC[C@H]1C(=O)O[C@H](c3ccoc3)C[C@]21C [Table 3 Entry 3, (2S,4aR,6aR,7R,10aR,10bR)-Methyl 2-(furan-3-yl)-9-((4-hydroxybenzoyl)oxy)-6a,10b-dimethyl-4,10-dioxo-2,4,4a,5,6,6a,7,10,10a,10b-decahydro-1H-benzo[f]isochromene-7-carboxylate]
μ opioid receptor (MOR); EC50
  EC50: 0.83 ± 0.04 nM
other
  melting point: 136 to 139 °C

## COC(=O)[C@@H]1C[C@H](NC(=O)c2ccccc2)C(=O)[C@H]2[C@@]1(C)CC[C@H]1C(=O)O[C@H](c3ccoc3)C[C@]21C [Compound 3, reference compound]
μ opioid receptor (MOR)
  Selectivity μ/κ: >3 000
μ opioid receptor (MOR); EC50 ± SEM μ
  EC50: 3 ± 0.4 nM
κ opioid receptor (KOR)
  EC50: > 10000 nM

## CN1CC[C@]23c4c5ccc(O)c4O[C@H]2[C@@H](O)C=C[C@H]3[C@H]1C5 [Morphine, morphine, reference compound]
Mice [1]
  ED50: 9.86 mg/kg
Mice [2]
  motor coordination (rotarod): significant decrease in motor coordination
Sprague Dawley rats; 5 mg/kg
  conditioned place preference: significant place preference
Sprague Dawley rats; 10 mg/kg
  conditioned place preference: significant place preference
Mice [3]
  antinociceptive effects over days of daily administration (tolerance): significant antinociceptive effects on days 1, 3, and 5 but not day 6
  antinociceptive effects on day 6 challenge after daily vehicle: antinociceptive effects similar to day 1

## COC(=O)[C@@H]1C[C@H](OC(=O)c2ccccc2)C(=O)[C@H]2[C@@]1(C)CC[C@H]1C(=O)O[C@H](c3ccoc3)C[C@]21C [Compound 2, herkinorin, reference compound]
μ opioid receptor (MOR)
  Selectivity μ/κ: 4.4
  selectivity for the MOR over KOR: 4.4 fold
μ opioid receptor (MOR); EC50 ± SEM μ
  EC50: 39 ± 4 nM
μ opioid receptor (MOR); Series 1 EC50
  EC50: 42 ± 4 nM
Sprague Dawley rats; 5 mg/kg
  conditioned place preference: Neither kurkinorin (5) nor herkinorin (2) were significantly different to vehicle
Mice [4]; 1, 5, and 10 mg/kg, i.p., 10 s cutoff
  antinociceptive effects: no significant antinociceptive effects
κ opioid receptor (KOR); read-out: EC50 ± SEM κ
  EC50: 170 ± 30 nM

## COC(=O)[C@@H]1C[C@H](OC(=O)c2cccc([N+](=O)[O-])c2)C(=O)[C@H]2[C@@]1(C)CC[C@H]1C(=O)O[C@H](c3ccoc3)C[C@]21C [Series 1 Entry 3]
μ opioid receptor (MOR); Series 1 EC50
  EC50: 3500 ± 200 nM

## COC(=O)[C@@H]1C=C(OC(=O)c2ccc(C)cc2)C(=O)[C@H]2[C@@]1(C)CC[C@H]1C(=O)O[C@H](c3ccoc3)C[C@]21C [Series 2 Entry 13, (2S,4aR,6aR,7R,10aR,10bR)-Methyl 2-(furan-3-yl)-6a,10b-dimethyl-9-((4-methylbenzoyl)oxy)-4,10-dioxo-2,4,4a,5,6a,7,10,10a,10b-decahydro-1H-benzo[f]isochromene-7-carboxylate]
μ opioid receptor (MOR); read-out: Series 2 EC50
  EC50: 21.8 ± 0.3 nM

## COC(=O)[C@@H]1C=C(OC(=O)/C=C/c2ccccc2)C(=O)[C@H]2[C@@]1(C)CC[C@H]1C(=O)O[C@H](c3ccoc3)C[C@]21C [Table 3 Entry 6, (2S,4aR,6aR,7R,10aR,10bR)-Methyl 9-(cinnamoyloxy)-2-(furan-3-yl)-6a,10b-dimethyl-4,10-dioxo-2,4,4a,5,6,6a,7,10,10a,10b-decahydro-1Hbenzo[f]isochromene-7-carboxylate]
μ opioid receptor (MOR); EC50
  EC50: 30 ± 10 nM

## COC(=O)[C@@H]1C=C(OC(=O)c2ccccc2)C(=O)[C@H]2[C@@]1(C)CC[C@H]1C(=O)O[C@H](c3ccoc3)C[C@]21C [Compound 5, (2S,4aR,6aR,6aR,10aR,10bR)-Methyl 2-(furan-3-yl)-9-((benzoyl)oxy)-6a,10b-dimethyl-4,10-dioxo-2,4,4a,5,6,6a,7,10,10a,10b-decahydro-1H-benzo[f]isochromene-7-carboxylate]
Mice [1]
  ED50: 9.72 mg/kg
Sprague Dawley rats; 5 mg/kg
  conditioned place preference: Neither kurkinorin (5) nor herkinorin (2) were significantly different to vehicle
Sprague Dawley rats; 10 mg/kg, listed as Kurkinorin
  conditioned place preference: significant decrease in preference compared to morphine; also recorded: not significantly different form vehicle
Mice [3]
  antinociceptive effects over days of daily administration (tolerance): maintained antinociceptive efficacy from days 1-6
  antinociceptive effects on day 6 challenge after daily vehicle: antinociceptive effects similar to day 1
Mice [4]; 5 and 10 mg/kg i.p., similar to morphine at 10 mg/kg
  antinociceptive effects: significant antinociceptive effects
κ opioid receptor (KOR)
  EC50: > 10000 nM
  activity at the KOR: no activity

## COC(=O)[C@@H]1C=C(OC(=O)c2ccccc2C)C(=O)[C@H]2[C@@]1(C)CC[C@H]1C(=O)O[C@H](c3ccoc3)C[C@]21C [Series 2 Entry 11, (2S,4aR,6aR,7R,10aR,10bR)-Methyl 2-(furan-3-yl)-6a,10b-dimethyl-9-((2-methylbenzoyl)oxy)-4,10-dioxo-2,4,4a,5,6,6a,7,10,10a,10b-decahydro-1H-benzo[f]isochromene-7-carboxylate]
μ opioid receptor (MOR); Series 2 EC50
  EC50: 240 ± 40 nM

## COC(=O)[C@@H]1C=C(OC(=O)c2cccc([N+](=O)[O-])c2)C(=O)[C@H]2[C@@]1(C)CC[C@H]1C(=O)O[C@H](c3ccoc3)C[C@]21C [Series 2 Entry 3, (2S,4aR,6aR,7R,10aR,10bR)-Methyl 2-(furan-3-yl)-6a,10b-dimethyl-9-((3-nitrobenzoyl)oxy)-4,10-dioxo-2,4,4a,5,6,6a,7,10,10a,10b-decahydro-1H-benzo[f]isochromene-7-carboxylate]
μ opioid receptor (MOR); Series 2 EC50
  EC50: 320 ± 10 nM
